Biological target: UbiX (Pseudomonas aeruginosa, UniProt Q9HX08)
Assay: crystal structure
Assay type: binding
Details: complex with DMAP

Sequence of UbiX (Q9HX08 whole entry): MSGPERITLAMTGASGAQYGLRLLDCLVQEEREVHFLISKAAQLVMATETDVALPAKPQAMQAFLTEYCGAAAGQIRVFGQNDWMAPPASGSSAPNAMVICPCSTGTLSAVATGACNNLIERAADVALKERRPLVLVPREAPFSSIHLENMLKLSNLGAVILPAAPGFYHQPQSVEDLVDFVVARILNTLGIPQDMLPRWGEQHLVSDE

Cc1cc2nc3c(=O)[nH]c(=O)nc-3n(C[C@H](O)[C@H](O)[C@H](O)COP(=O)(O)O)c2cc1C [FMN]
crystal structure: crystal structure of P. aeruginosa UbiX in complex with oxidized FMN and DMAP

Reference: publication PMC4988493 (Nature, 2015)
